What was measured:
PSMA = assay: in vivo 68Ga-PSMA-11 blocking, PET imaging and biodistribution; conditions: 22Rv1 xenograft mice; organs gamma counted
solubility = assay type: physicochemical; conditions: water / buffer

SMILES: N[C@@H](Cc1ccc(B(O)O)cc1)C(=O)O [BPA, 4-borono-L-phenylalanine]
- 68Ga-PSMA-11 biodistribution, uptake in kidney, spleen and tumor (PSMA): did not significantly block uptake
- solubility (solubility): low solubility in buffer

Source: article PMC6722010 (Molecular pharmaceutics, 2019)
